Source: patent US20240300980A1, “HETEROCYCLIC COMPOUNDS AS KRAS INHIBITOR, AND PREPARATION THEREFOR AND USE THEREOF IN TREATMENT” (SHANGHAI KECHOW PHARMA, INC., priority 2021, published 2024)

Tested on: AGS cells (KRAS^G12D)
Assay: Detection of cell proliferation in vitro by MTT/MTS method (cell activity experiment)
Assay type: cell-based
Settings: AGS cells; MTT/MTS; 3 days of drug treatment; read-out: AGS IC50
Procedure, shortened: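 KRAS G12D AGS cells seeded at 1000 per well, compound added 24 h later, 0.5% final DMSO. Viability read after 3 days of treatment by MTT (solubilised in DMSO) or MTS, 4 h, absorbance 490 nm. IC50 from dose–response curves versus DMSO control.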

| SMILES | IC50 [nM] |
| --- | --- |
| C#Cc1c(F)ccc2cc(O)cc(-c3ccc4c(N5C[C@H]6CC[C@@H](C5)[C@@H]6S(C)(=O)=O)nc(OC[C@@]56CCCN5C[C@H](F)C6)nc4c3F)c12 [Example 131, 5-ethynyl-6-fluoro-4-(8-fluoro-2-(((2R,7aS)-2-fluorotetrahydro-1H-pyrrolizin-7a(5H)-yl)methoxy)-4-((1R,5S, 8R)-8-(methylsulfonyl)-3-azabicyclo[3.2.1]octan-3-yl)quinazolin-7-yl)naphthalen-2-ol] | > 2500 |

Same assay, conditions: Homo sapiens, AGS, 72 h, AGS cells; MTT/MTS; 3 days of drug treatment; read-out: AGS IC50

| SMILES | IC50 [nM] |
| --- | --- |
| [O-][S+]1CCCc2cc(O)cc(-c3ncc4c(N5C[C@H]6CC[C@@H](C5)N6)nc(OC[C@@]56CCCN5C[C@H](F)C6)nc4c3F)c21 (stereo partly drawn) [Example 251, 8-(4-((1R,5S)-3,8-diazabicyclo[3.2.1]octan-3-yl)-8-fluoro-2-(((2R,7aS)-2-fluorotetrahydro-1H-pyrrolizin-7a(5H)-yl)methoxy)pyrido[4,3-d]pyrimidin-7-yl)-6-hydroxythiochromane 1-oxide] | > 2500 |
| C#Cc1c(F)ccc2cc(O)cc(-c3ccc4c(N5C[C@H]6CC[C@@H](C5)N6)nc(OC[C@@]56CCCN5C[C@H](F)C6)nc4c3F)c12 [Example 91, 4-(4-((1R,5S)-3,8-diazabicyclo[3.2.1]octan-3-yl)-8-fluoro-2-(((2R,7aS)-2-fluorotetrahydro-1H-pyrrolizin-7a(5H)-yl)methoxy)quinazolin-7-yl)-5-ethynyl-6-fluoronaphthalen-2-ol] | 1.3 |
| C#Cc1cccc2cc(O)cc(-c3ccc4c(C5C[C@H]6CC[C@@H](C5)N6)nc(OC[C@@]56CCCN5C[C@H](F)C6)nc4c3F)c12 (stereo partly drawn) [Example 138, 4-(4-((1R,5S)-8-azabicyclo[3.2.1]octan-3-yl)-8-fluoro-2-(((2R, 7aS)-2-fluorotetrahydro-1H-pyrrolizin-7a(5H)-yl)methoxy)quinazolin-7-yl)-5-ethynylnaphthalen-2-ol] | > 2500 |
| CCC1CCc2cc(O)cc(-c3ncc4c(NCC5(N(C)C)CCC5)nc(OC[C@@]56CCCN5C[C@H](F)C6)nc4c3F)c21 (stereo partly drawn) [Example 423, 7-(4-(((1-(dimethylamino)cyclobutyl)methyl)amino)-8-fluoro-2-(((2R,7aS)-2-fluorotetrahydro-1H-pyrrolizin-7a(5H)-yl)methoxy)pyrido[4,3-d]pyrimidin-7-yl)-1-ethyl-2,3-dihydro-1H-inden-5-ol] | 55 |
| C#Cc1c(F)ccc2cc(O)cc(-c3ccc4c(N5CCC6(CCCN6)CC5)nc(OC[C@@]56CCCN5C[C@H](F)C6)nc4c3F)c12 [Example 90, 5-ethynyl-6-fluoro-4-(8-fluoro-2-(((2R,7aS)-2-fluorotetrahydro-1H-pyrrolizin-7a(5H)-yl)methoxy)-4-(1,8-diazaspiro[4,5]decan-8-yl)quinazolin-7-yl)naphthalen-2-ol] | 8920 |
| C#Cc1c(F)ccc2cc(O)cc(-c3ccc4c(N5CCC6(CC5)CO[C@@H](C)[C@H]6N)nc(OC[C@@]56CCCN5C[C@H](F)C6)nc4c3F)c12 [Example 114, 4-(4-((3S,4S)-4-amino-3-methyl-2-oxa-8-azaspiro[4.5]decan-8-yl)-8-fluoro-2-(((2R, 7aS)-2-fluorotetrahydro-1H-pyrrolizin-7a(5H)-yl)methoxy)quinazolin-7-yl)-5-ethynyl-6-fluoronaphthalen-2-ol] | > 2500 |
| O=S1(=O)[C@@H]2CC[C@H]1CN(c1nc(OC[C@@]34CCCN3C[C@H](F)C4)nc3c(F)c(-c4cc(O)cc5ccc(F)c(F)c45)ncc13)C2 [Example 29, (1R,5S)-3-(7-(7,8-difluoro-3-hydroxynaphthalen-1-yl)-8-fluoro-2-(((2R,7aS)-2-fluorotetrahydro-1H-pyrrolizin-7a(5H)-yl)methoxy)pyrido[4,3-d]pyrimidin-4-yl)-8-thia-3-azabicyclo [3.2.1]octane 8,8-dioxide] | > 2500 |
| O=S1(=O)[C@@H]2CC[C@H]1CN(c1nc(OC[C@@]34CCCN3C[C@H](F)C4)nc3c(F)c(-c4cc(O)cc5cccc(F)c45)ccc13)C2 [Example 169, (1R,5S)-3-(8-fluoro-7-(8-fluoro-3-hydroxynaphthalen-1-yl)-2-(((2R,7aS)-2-fluorotetrahydro-1H-pyrrolizin-7a(5H)-yl)methoxy)quinazolin-4-yl)-8-thia-3-azabicyclo[3.2.1]octane 8,8-dioxide] | > 2500 |
| CCc1cccc2cc(O)cc(-c3ncc4c(N5C[C@H]6CC[C@@H](C5)N6)nc(OCC5(CN6CCCC6)CC5)nc4c3F)c12 [Example 4, 4-(4-((1R,5S)-3,8-diazabicyclo[3.2.1]octan-3-yl)-8-fluoro-2-((1-(pyrrolidin-1-ylmethyl)cyclopropyl)methoxy)pyrido[4,3-d]pyrimidin-7-yl)-5-ethylnaphthalen-2-ol] | 11 |
| N#Cc1c(OC[C@@]23CCCN2C[C@H](F)C3)nc2cc(-c3cccc4ccc(F)c(Cl)c34)ccc2c1N1C[C@H]2CC[C@@H](C1)N2 [Example 170, 4-((1R,5S)-3,8-diazabicyclo[3.2.1]octan-3-yl)-7-(8-chloro-7-fluoronaphthalen-1-yl)-2-(((2R,7aS)-2-fluorotetrahydro-1H-pyrrolizin-7a(5H)-yl)methoxy)quinoline-3-carbonitrile] | 1040 |
| C#Cc1c(F)ccc2cc(O)cc(-c3ncc4c(N5CC6(CNC6)C5)nc(OC[C@@]56CCCN5C[C@H](F)C6)nc4c3F)c12 [Example 70, 5-ethynyl-6-fluoro-4-(8-fluoro-2-(((2R, 7aS)-2-fluorotetrahydro-1H-pyrrolizin-7a(5H)-yl)methoxy)-4-(2,6-diazaspiro[3.3]heptan-2-yl)pyrido[4,3-d]pyrimidin-7-yl)naphthalen-2-ol] | > 2500 |
| CCc1cccc2cc(O)cc(-c3ccc4c(N5C[C@H]6CC[C@@H](C5)N6)nc(OC[C@@]56CCCN5C[C@H](F)C6)nc4c3F)c12 [Example 93, 4-(4-((1R,5S)-3,8-diazabicyclo[3.2.1]octan-3-yl)-8-fluoro-2-(((2R,7aS)-2-fluorotetrahydro-1H-pyrrolizin-7a(5H)-yl)methoxy)quinazolin-7-yl)-5-ethylnaphthalen-2-ol] | 10.1 |
| CC1CCc2cc(O)cc(-c3cc4nc(OC[C@@]56CCCN5C[C@H](F)C6)nc(N5C[C@H]6CC[C@@H](C5)N6)c4c4occc34)c21 (stereo partly drawn) [Example 385, 7-(9-((1R,5S)-3,8-diazabicyclo[3.2.1]octan-3-yl)-7-(((2R,7aS)-2-fluorotetrahydro-1H-pyrrolizin-7a(5H)-yl)methoxy)furo[2,3-f]quinazolin-4-yl)-1-methyl-2,3-dihydro-1H-inden-5-ol] | 459 |
| CSc1c(F)ccc2cc(O)cc(-c3ncc4c(N5C[C@H]6CC[C@@H](C5)N6)nc(OC[C@@]56CCCN5C[C@H](F)C6)nc4c3F)c12 [Example 360, 4-(4-((1R,5S)-3,8-diazabicyclo[3.2.1]octan-3-yl)-8-fluoro-2-(((2R,7aS)-2-fluorotetrahydro-1H-pyrrolizin-7a(5H)-yl)methoxy)pyrido[4,3-d]pyrimidin-7-yl)-6-fluoro-5-(methylthio)naphthalen-2-ol] | 10 |
| CC1CCCc2cc(O)cc(-c3ncc4c(NCC5(N(C)C)CCC5)nc(OC[C@@]56CCCN5C[C@H](F)C6)nc4c3F)c21 (stereo partly drawn) [Example 421, 4-(4-(((1-(dimethylamino)cyclobutyl)methyl)amino)-8-fluoro-2-(((2R,7aS)-2-fluorotetrahydro-1H-pyrrolizin-7a(5H)-yl)methoxy)pyrido[4,3-d]pyrimidin-7-yl)-5-methyl-5,6,7,8-tetrahydronaphthalen-2-ol] | 26 |
| C#Cc1c(F)ccc2cc(O)cc(-c3ncc4c(N5CC6CCC(C5)C6SC)nc(OC[C@@]56CCCN5C[C@H](F)C6)nc4c3F)c12 (stereo partly drawn) [Example 64, 5-ethynyl-6-fluoro-4-(8-fluoro-2-(((2R,7aS)-2-fluorotetrahydro-1H-pyrrolizin-7a(5H)-yl)methoxy)-4-((1R,5S, 8R)-8-(methylthio)-3-azabicyclo[3.2.1]octan-3-yl)pyrido[4,3-d]pyrimidin-7-yl) naphthalen-2-ol] | > 10000 |
| C#Cc1c(F)ccc2cc(O)cc(-c3ccc4c(C56CCN(CC5)CC6)nc(OC[C@@]56CCCN5C[C@H](F)C6)nc4c3F)c12 [Example 136, 5-ethynyl-6-fluoro-4-(8-fluoro-2-(((2R,7aS)-2-fluorotetrahydro-1H-pyrrolizin-7a(5H)-yl)methoxy)-4-(quinuclidin-4-yl)quinazolin-7-yl)naphthalen-2-ol] | > 2500 |
| C#Cc1c(F)ccc2cc(O)cc(-c3ccc4c(N5CC(C)(NC)C5)nc(OC[C@@]56CCCN5C[C@H](F)C6)nc4c3F)c12 [Example 218, 5-ethynyl-6-fluoro-4-(8-fluoro-2-(((2R,7aS)-2-fluorotetrahydro-1H-pyrrolizin-7a(5H)-yl)methoxy)-4-(3-methyl-3-(methylamino)azetidin-1-yl)quinazolin-7-yl)naphthalen-2-ol] | 980 |
| CCc1cccc2cc(O)cc(-c3ccc4c(N5C[C@H]6CC[C@@H](C5)N6)c(C#N)c(OC[C@@]56CCCN5C[C@H](F)C6)nc4c3F)c12 [Example 181, 4-((1R,5S)-3,8-diazabicyclo[3.2.1]octan-3-yl)-7-(8-ethyl-3-hydroxynaphthalen-1-yl)-8-fluoro-2-(((2R,7aS)-2-fluorotetrahydro-1H-pyrrolizin-7a(5H)-yl)methoxy)quinoline-3-carbonitrile] | 536 |
| C#Cc1c(F)ccc2cc(O)cc(-c3ncc4c(N5C[C@H]6CC[C@@H](C5)O6)nc(OC[C@@]56CCCN5C[C@H](F)C6)nc4c3F)c12 [Example 12, 4-(4-((1R,5S)-8-oxa-3-azabicyclo[3.2.1]octan-3-yl)-8-fluoro-2-(((2R,7aS)-2-fluorotetrahydro-1H-pyrrolizin-7a(5H)-yl)methoxy)pyrido[4,3-d]pyrimidin-7-yl)-5-ethynyl-6-fluoronaphthalen-2-ol] | 316 |

Same assay, conditions: Homo sapiens, AGS, 72 h, read-out: AGS IC50

| SMILES | IC50 [nM] |
| --- | --- |
| CCC1CCc2cc(O)cc(-c3ncc4c(N5C[C@H]6CC[C@@H](C5)N6)nc(OC[C@@]56CCCN5C[C@H](F)C6)nc4c3F)c21 (stereo partly drawn) [Example 220, 7-(4-((1R,5S)-3,8-diazabicyclo[3.2.1]octan-3-yl)-8-fluoro-2-(((2R,7aS)-2-fluorotetrahydro-1H-pyrrolizin-7a(5H)-yl)methoxy)pyrido[4,3-d]pyrimidin-7-yl)-1-ethyl-2,3-dihydro-1H-inden-5-ol] | 5 |
